Measured values as given in ChEMBL document CHEMBL3877337, “Crystal Structures of ERAP2 Complexed with Inhibitors Reveal Pharmacophore Requirements for Optimizing Inhibitor Potency” (ACS Med Chem Lett, 2017).
pIC50: −log10 of the molar value.

Molecular target: Endoplasmic reticulum aminopeptidase 2 (Homo sapiens, UniProt Q6P179)
Assay: Inhibition of recombinant ERAP2 (unknown origin) expressed in baculovirus infected insect cells using L-arginine-7-amido-4-methylcoumarine as substrate by spectrofluorimetric assay

Sequence of Endoplasmic reticulum aminopeptidase 2 (Q6P179 whole entry): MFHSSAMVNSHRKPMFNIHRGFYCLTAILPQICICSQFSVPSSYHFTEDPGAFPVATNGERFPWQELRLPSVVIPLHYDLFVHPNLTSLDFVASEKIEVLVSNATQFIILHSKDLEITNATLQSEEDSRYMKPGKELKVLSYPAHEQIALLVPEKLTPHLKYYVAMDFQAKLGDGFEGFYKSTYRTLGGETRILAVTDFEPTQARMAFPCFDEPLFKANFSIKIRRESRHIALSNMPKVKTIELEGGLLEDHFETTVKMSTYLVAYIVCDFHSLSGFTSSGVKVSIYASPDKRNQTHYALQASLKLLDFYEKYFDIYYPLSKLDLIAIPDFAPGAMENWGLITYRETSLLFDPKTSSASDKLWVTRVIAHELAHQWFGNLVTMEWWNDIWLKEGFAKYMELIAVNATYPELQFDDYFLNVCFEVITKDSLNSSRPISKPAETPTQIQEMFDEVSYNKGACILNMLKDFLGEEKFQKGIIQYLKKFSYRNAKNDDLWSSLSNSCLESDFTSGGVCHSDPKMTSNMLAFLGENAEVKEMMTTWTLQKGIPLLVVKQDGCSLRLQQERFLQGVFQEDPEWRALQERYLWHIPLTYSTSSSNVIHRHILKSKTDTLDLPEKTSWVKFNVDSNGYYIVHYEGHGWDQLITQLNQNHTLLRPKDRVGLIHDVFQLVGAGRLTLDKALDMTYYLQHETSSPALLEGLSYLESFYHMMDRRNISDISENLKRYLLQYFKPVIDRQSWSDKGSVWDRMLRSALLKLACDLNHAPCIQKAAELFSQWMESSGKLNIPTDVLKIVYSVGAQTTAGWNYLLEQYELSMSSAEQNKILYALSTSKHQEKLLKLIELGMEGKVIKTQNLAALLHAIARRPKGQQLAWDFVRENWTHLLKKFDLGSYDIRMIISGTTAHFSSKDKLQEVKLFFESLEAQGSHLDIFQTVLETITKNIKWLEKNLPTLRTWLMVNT

A pIC50 of under 4.00 was found for `O=C(NO)C(Cc1ccc(F)cc1)C(=O)NCc1ccccc1` (stereo unspecified) in this work.
